{
  "source": "patent US20120020915A1",
  "about": "“Compounds and Methods for Treating Cancer and Diseases of the Central Nervous System” (QUEENS UNIVERSITY AT KINGSTON, priority 2007, published 2012)",
  "key": {"[1]": {"test_system": "hHO-1 transfected primary rat astroglial cultures", "experiment": "Protein carbonyl assay (ELISA) in hHO-1 transfected rat astroglia, whole-cell and mitochondrial fractions", "format": "cell-based", "conditions": "whole cell and mitochondrial compartments; for oxidative protein damage (protein carbonyls) accruing from hHO-1 transfection: 6.5 μM; for dose dependence of attenuation of oxidative protein damage: transiently transfected rat astroglia, hydrochloride", "method": "Cells were grown in Ham's F12 and high glucose DMEM (50:50 v/v) supplemented with 10 mM HEPES, 5% heat-inactivated horse serum, 5% heat-inactivated fetal bovine serum, and penicillin-streptomycin (50 U/mL and 50 μg/mL, respectively).\n(§1) Upon reaching >90% confluence, 1×10^6 cells were transiently transfected with 4.0 μg of plasmid DNA-Lipofectamine 2000 complex using Lipofectamine 2000 method according to manufacturer instructions (Invitrogen). […] 12 μg of plasmid DNA and 16 μl of Lipofectamine 2000 reagent were diluted in 1.5 mL opti-MEM I reduced serum medium and incubated for 5 minutes at room temperature with gentle mixing. The two solutions were combined, incubated at room temperature for 20 minutes to promote formation of DNA-lipid complexes and administered to the cells. 2 mL opti-MEM I reduced serum medium was added to the flasks to ensure coverage of the monolayer by the transfection mixture. Following incubation for 6 hours at 37° C., the transfection mixture was replaced with 10 mL of complete media without antibiotics.\nThe cells were sonicated (Sonics & Materials, Danbury, Conn.) at a power level of 50 for 3×20 s in a cooled water bath. […] Whole-cell and mitochondrial preparations were assayed for protein carbonyls as described below.\nProtein carbonyls were reacted with 2,4-dinitrophenylhydrazine (DNP) and the hydrazone adducts were detected with anti-DNP antisera. Quantification was achieved by comparison with oxidized BSA standards. Oxidized (carbonylated) BSA was prepared by reacting natural BSA (at 50 mg/mL in PBS) with hypochlorous acid (5 mM) for 1 h at 37° C., followed by overnight dialysis against PBS at 4° C. […] The pellet was resuspended in 2 mL of same buffer, sonicated on ice 2×15 s at 20 W and centrifuged for 20 min at 4° C. at 1,303×g. Protein concentration of supernatant was measured with the RC DC protein assay based on the Lowry protocol (Bio-Rad Laboratories, Hercules, Calif.). All samples were adjusted to 4.0 mg protein/mL. […] Five microliters aliquots of each reaction mixture were mixed with 1 mL PBS and 200 μL replicates were added per well to 96-well immunoplates and incubated overnight at 4° C. After washing with PBS, nonspecific binding sites were blocked with 0.1% Tween 20 in PBS. […] A 6-point standard curve of reduced and oxidized BSA was generated for each plate analyzed. Specific absorbance for each sample was calculated by subtracting basal absorbance of the DNP reagent from the total absorbance."}, "[2]": {"test_system": "flag-tagged HO-1 protein", "experiment": "Western blot of flag-tagged HO-1 protein in transfected cells", "format": "cell-based, human", "conditions": "6.5 μM, transiently transfected cells", "method": "Cells were rinsed twice with cold PBS (pH 7.4) and scraped in iced lysis buffer consisting of 1% Nonidet P-40, 50 mM Tris.HCl (pH 7.4), 30 mM NaCl, 25 mM β-glycerophosphate, 10 mM EDTA, 10 mM EGTA, 1 mM MgCl2, and protease inhibitors (10 mM sodium fluoride, 50 μg/mL AEBBSF, 5 μg/mL leupeptin, 5 μg/mL pepstatin, 5 μg/mL aprotinin). Supernatants were obtained by centrifugation at 15,000 rpm for 15 min at 4° C. Protein contents were determined using the Bradford method. Twenty μg aliquots plus 6×SDS-PAGE loading buffer (300 mM Tris.HCl pH 6.8, 600 mM DTT, 12% SDS, 0.6% bromophenol blue, 60% glycerol) were subjected to 10% sodium dodecyl sulfate-polyacrylamide gel electrophoresis and transferred to the polyvinylidene fluoride membranes. Nonspecific binding was blocked by incubation in Tris buffer saline (pH 7.4) containing 3% nonfat milk and 0.1% Tween 20 for 1 h at room temperature. Blots were probed with mouse anti-FLAG monoclonal antibody (1:200 diluted) and anti-β-actin monoclonal antibody (1:500 diluted). The secondary antibody consisted of horseradish peroxidase-conjugated goat anti-mouse antibody (1:4000 dilution). Protein bands were visualized by enhanced chemiluminescence using ECL western blotting reagents."}, "[3]": {"molecular_target": "T1, heme oxygenase activity in hHO-1-transfected astrocytes (Homo sapiens, UniProt P09601)", "T1 construct": "containing the entire protein-coding region (866 bp) of the human HO-1 gene; expressed in transfected cells; host or cells: primary rat astrocytes (also rat C6 glioma and human pancreatic tumor cells), transient transfection with Lipofectamine 2000", "T1 sequence (P09601 1-288)": "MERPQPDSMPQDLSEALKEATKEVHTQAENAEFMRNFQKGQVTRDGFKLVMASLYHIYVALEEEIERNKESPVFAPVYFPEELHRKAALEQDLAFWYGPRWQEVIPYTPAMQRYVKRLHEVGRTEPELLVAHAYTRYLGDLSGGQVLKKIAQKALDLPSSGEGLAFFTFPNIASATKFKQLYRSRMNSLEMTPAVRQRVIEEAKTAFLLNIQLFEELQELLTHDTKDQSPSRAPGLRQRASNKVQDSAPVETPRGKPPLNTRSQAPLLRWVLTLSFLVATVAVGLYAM", "experiment": "In vitro HO enzyme activity (bilirubin formation) in hHO-1 transfected cells", "format": "cell-based", "conditions": "6.5 μM, 18 h; hydrochloride", "method": "as §1\nCytosol extracts were prepared for HO activity measurement by the method of Ryter (Ryter, Kvam, Tyrrell 2000). […] Protein concentration of supernatant was measured with Bradford method. […] HO activity was calculated as nanomoles bilirubin per miligram protein per min, assuming an extinction coefficient of 40/mM/cm in chloroform (see FIG. 8)."}, "[4]": {"test_system": "B16-BL6 cells (mouse melanoma)", "experiment": "Metastatic B16-BL6 melanoma model, lung surface metastases", "format": "in vivo", "conditions": "vehicle control: 101", "method": "B16-BL6 cells (mouse melanoma). B16-BL6 metastatic variant was derived from B16-F10. This cell variant was obtained from Dr. Linda D. Williams, Dept. of Cancer Biology, MD Anderson Cancer Center, Texas, USA. […] Cells were maintained at 37° C. in a humidified atmosphere (5% CO2, 95% air).\n(§2) Control groups received the vehicle alone."}, "[5]": {"format": "in vivo", "text": "as §2"}, "[6]": {"test_system": "HCT-116 colorectal carcinoma", "experiment": "Colorectal carcinoma model HCT-116 in SCID mice, tumor growth delay", "format": "in vivo, Mouse (Mus musculus); male SCID", "conditions": "dosage of 60 mg/kg", "text": "as §2"}},
  "note": "“Also recorded” adds a separate entry of the source.",
  "data": [
    {"smiles": "Cl.FC[C@@H]1CO[C@@](CCc2ccc(Cl)cc2)(Cn2ccnc2)O1", "note": "[QC-47, (2R,4S)-1-{2-[2-(4-Chlorophenyl)ethyl]-4-fluoromethyl-[1,3]dioxolan-2-ylmethyl}-1H-imidazole hydrochloride]", "values": [
      {"measurement": "oxidative protein damage (protein carbonyls) accruing from hHO-1 transfection", "setting": "[1]", "result": "significantly attenuated oxidative protein damage"},
      {"measurement": "dose dependence of attenuation of oxidative protein damage", "setting": "[1]", "result": "significant dose dependant attenuations of oxidative protein damage; also recorded: in a dose dependent manner significantly decreased the amount of oxidative damage"},
      {"measurement": "expression level of flag-tagged HO-1 protein", "setting": "[2]", "result": "without affecting the expression level"},
      {"measurement": "heme oxygenase activity in hHO-1 transfected cells", "setting": "[3]", "result": "suppressed to levels akin to those of non-transfected and sham-transfected controls; also recorded: significantly attenuated heme oxygenase activity; also recorded: significantly decreased the activity of heme oxygenase-1"}
    ]},
    {"smiles": "Brc1ccc(CCC2(Cn3ccnc3)OCCO2)cc1.Cl", "note": "[QC-56, 1-((2-(2-(4-Bromophenyl)ethyl)-1,3-dioxolan-2-yl)methyl)-1H-imidazole hydrochloride]", "values": [
      {"measurement": "macroscopic nodules in the lungs (average)", "setting": "[4]", "result": 51, "unit": "nodules"},
      {"measurement": "oxidative protein damage (protein carbonyls) accruing from hHO-1 transfection", "setting": "[1]", "result": "significantly attenuated oxidative protein damage"},
      {"measurement": "dose dependence of attenuation of oxidative protein damage", "setting": "[1]", "result": "significant dose dependant attenuations of oxidative protein damage; also recorded: in a dose dependent manner significantly decreased the amount of oxidative damage; also recorded: significant dose-dependant attenuations of oxidative protein damage"},
      {"measurement": "expression level of flag-tagged HO-1 protein", "setting": "[2]", "result": "without affecting the expression level"},
      {"measurement": "toxicity in the combination study", "setting": "[5]; QC-56 60 mg/kg ip, 4 cycles, chemotherapy drugs ip", "result": "No apparent toxicity"},
      {"measurement": "tolerability at multiple doses up to 100 mg/kg", "setting": "[5]; multiple doses up to 100 mg/kg, intraperitoneal and intravenous routes, hydrochloride", "result": "well tolerated with no apparent signs of toxicity; also recorded: well tolerated"},
      {"measurement": "heme oxygenase activity in hHO-1 transfected cells", "setting": "[3]", "result": "suppressed to levels akin to those of non-transfected and sham-transfected controls; also recorded: significantly attenuated heme oxygenase activity; also recorded: significantly decreased the activity of heme oxygenase-1"},
      {"measurement": "mortality", "setting": "[6]", "result": "not"}
    ]}
  ]
}
